Source: the NIST ThermoML archive (doi:10.1021/je100821g)

Key:
[1] = xn = mol fraction of the nth substance listed; conditions: 293.15 K, 101 kPa, Liquid; for viscosity: Concentric cylinders viscometry
[2] = excess molar enthalpy (molar enthalpy of mixing); xn = mol fraction of the nth substance listed; conditions: 303 K, 101 kPa, Liquid, Calvet calorimetry
[3] = Liquid; for viscosity / mass density: 101.33 kPa; for viscosity: Concentric cylinders viscometry; for mass density: Vibrating tube method

COC(C)(C)C [2-methoxy-2-methylpropane] + ClC(Cl)Cl
x2 = 0
Conditions	excess molar enthalpy [kcal/mol]	mass density [kg/m3]	viscosity [mPa·s]
[1]	–	739.9	0.333
[2]	0	–	–

ClC(Cl)Cl [trichloromethane] + COC(C)(C)C
Conditions	excess molar enthalpy [kcal/mol]	mass density [kg/m3]	viscosity [mPa·s]
[1], x1 = 0.0527	–	768.1	0.358
[1], x1 = 0.0834	–	785.4	0.372
[1], x1 = 0.1841	–	842.6	0.423
[1], x1 = 0.2714	–	895.6	0.47
[1], x1 = 0.358	–	951.5	0.514
[1], x1 = 0.4511	–	1015	0.56
[1], x1 = 0.546	–	1083.8	0.595
[1], x1 = 0.6303	–	1148.9	0.612
[1], x1 = 0.724	–	1225.9	0.62
[1], x1 = 0.8108	–	1302.9	0.618
[1], x1 = 0.8948	–	1381.1	0.613
[1], x1 = 0.9515	–	1437.9	0.609
[1], x1 = 1	–	1488.4	0.6
[2], x1 = 0.038	-0.0817	–	–
[2], x1 = 0.068	-0.159	–	–
[2], x1 = 0.097	-0.22	–	–
[2], x1 = 0.101	-0.244	–	–
[2], x1 = 0.118	-0.263	–	–
[2], x1 = 0.154	-0.287	–	–
[2], x1 = 0.172	-0.311	–	–
[2], x1 = 0.219	-0.382	–	–
[2], x1 = 0.251	-0.454	–	–
[2], x1 = 0.39	-0.502	–	–
[2], x1 = 0.516	-0.502	–	–
[2], x1 = 0.669	-0.43	–	–
[2], x1 = 0.78	-0.359	–	–
[2], x1 = 0.864	-0.191	–	–
[2], x1 = 0.899	-0.155	–	–
[2], x1 = 0.931	-0.115	–	–
[2], x1 = 0.958	-0.0669	–	–
[2], x1 = 0.986	-0.0359	–	–
[2], x1 = 1	0	–	–

ClC(Cl)Cl [trichloromethane]
[3]
Conditions	mass density [kg/m3]	vapor or sublimation pressure [kPa]	viscosity [mPa·s]
273.15 K	1526	–	0.713
283.15 K	1507.1	–	0.651
293.15 K	1488.4	–	0.6
298.15 K	1478.8	–	0.576
303.15 K	1469.2	32.2	0.552
313.15 K	1450	–	0.509
318.15 K	1440	–	0.491

COC(C)(C)C [2-methoxy-2-methylpropane]
[3]
Conditions	mass density [kg/m3]	vapor or sublimation pressure [kPa]	viscosity [mPa·s]
273.15 K	760.4	–	0.39
283.15 K	750.1	–	0.36
286.5 K	–	20	–
291.3 K	–	25	–
293.15 K	739.9	–	0.333
295.5 K	–	30	–
298.15 K	734.4	–	0.319
299.2 K	–	35	–
302.5 K	–	40	–
303.15 K	729.2	41	0.304
305.45 K	–	45	–
308.2 K	–	50	–
310.8 K	–	55	–
313.1 K	–	60	–
313.15 K	718.5	–	0.278
315.3 K	–	65	–
317.4 K	–	70	–
319.3 K	–	75	–
321.1 K	–	80	–
322.9 K	–	85	–
324.5 K	–	90	–
325.4 K	–	92.5	–
326.2 K	–	95	–
326.9 K	–	97.2	–
